Earlier results in patent publication US8343778B2, “Microfluidic microarray assemblies and methods of manufacturing and using” (Simon Fraser University, priority 2004, dated 2013).

Target: T1, Ure2p (Saccharomyces cerevisiae, UniProt P23202)
T1 sequence (P23202 1-354): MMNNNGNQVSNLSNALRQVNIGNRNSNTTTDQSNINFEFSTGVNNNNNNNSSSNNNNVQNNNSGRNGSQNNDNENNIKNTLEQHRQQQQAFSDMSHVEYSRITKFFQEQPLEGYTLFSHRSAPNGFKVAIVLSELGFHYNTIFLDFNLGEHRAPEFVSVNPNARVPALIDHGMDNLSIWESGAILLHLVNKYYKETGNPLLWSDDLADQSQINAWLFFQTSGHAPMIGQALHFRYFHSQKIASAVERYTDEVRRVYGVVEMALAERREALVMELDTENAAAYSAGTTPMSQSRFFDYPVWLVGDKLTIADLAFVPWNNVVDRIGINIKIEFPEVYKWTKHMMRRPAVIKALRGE
Conditions: high-density SMA of 1,3-dioxane-based small molecules exposed to fluorescently labeled Ure2p

uretupamine
binding of fluorescently labeled Ure2p to arrayed small molecule: Ure2p-binding
